In brackets after ≈: the same amount, converted by molar mass. Like-named read-outs stand apart in the source and are kept apart here.
Columns and labels:
[1] = system: SDHA in HepG2 cells; assay: Mitochondrial protein synthesis assay, SDHA level; type: cell-based; conditions: Homo sapiens, 168 h; HepG2, 7 days; read-out: Mean EC50 ± SD SDHA
Procedure: (§1) The human liver carcinoma-derived HepG2 cell line was obtained from the ATCC (ATCC HB-8065). HepG2 cells were grown in Dulbecco's modified Eagle's medium containing 10% fetal calf serum, 1 mM sodium pyruvate, 0.1 mM essential amino acids, and 50 U/ml penicillin-streptomycin at 37°C with 5% CO2. HepG2 cells were seeded into 96-well plates at 3,000 cells/200 μl/well in cell culture medium. Cells were then grown in the presence of the compounds at 37°C in 10% CO2 for 7 days in at least duplicate concentrations, with the medium and compounds being replaced on the fourth day. After 7 days, the levels of SDHA (subunit A of the succinate dehydrogenase complex) and COX1 (cytochrome c oxidase) were determined by using the MitoSciences In-Cell enzyme-linked immunosorbent assay (ELISA) kit. Janus green staining was used to determined cell viability after 7 days (In-Cell ELISA kit, catalog number MS643).

[2] = system: COX1 in HepG2 cells; assay: Mitochondrial protein synthesis assay, COX1 level; type: cell-based; conditions: Homo sapiens, 168 h; HepG2, 7 days; read-out: Mean EC50 ± SD COX1
Procedure: as §1

[3] = system: HepG2 cells; assay: HepG2 cell viability (Janus green staining); type: cell-based; conditions: Homo sapiens, 168 h, HepG2, 7 days, read-out: Mean EC50 ± SD Cell viability
Procedure: as §1

[4] = system: Vero cells; assay: In vitro cytotoxicity assay (MTT); type: cell-based, African green monkey; conditions: Chlorocebus sabaeus, 72 h
Procedure: Vero epithelial cells (from African green monkey; ATCC CCL-81) were cultured in Dulbecco's modified Eagle's medium (DMEM) supplemented with 10% fetal bovine serum (FBS) and maintained in a humidified incubator (37°C in 5% CO2). Cells were dislodged with a cell scraper, collected by centrifugation, resuspended in fresh medium at ∼10^6 cells/ml, dispensed into 96-well microtiter plates ([…]), and incubated for 18 h at 37°C. Twofold serial dilutions of test compounds in DMEM with FBS were subsequently added, and cells were incubated for another 72 h. In triplicate studies, the cytopathic effects of compounds were evaluated colorimetrically by using the 3-(4,5-dimethyl-2-thiazolyl)-2,5-diphenyl-2H-tetrazolium bromide (MTT) cell proliferation assay (ATCC). IC50 data were obtained from dose-response curves plotted by using GraphPad Prism 5.

[5] = system: M. tuberculosis H37Rv; assay: MIC for M. tuberculosis H37Rv (resazurin/alamarBlue); type: cell-based, Mycobacterium tuberculosis; conditions: for MIC: Mycobacterium tuberculosis, H37RV, read-out: MIC M.tb H37Rv; for improvement of MIC values over compound 1: M. tuberculosis H37Rv
[6] = target: M. tuberculosis LeuRS (Mycobacterium tuberculosis, UniProt P9WFV1); assay: biochemical; design: species or system M. tuberculosis H37Rv
[7] = target: M. tuberculosis LeuRS editing domain (Mycobacterium tuberculosis, UniProt P9WFV1); assay: biochemical; type: binding
[8] = in vivo; conditions: for α-t1/2 % AUC / β-t1/2 % AUC: i.v.; for AUC(0-inf) / Cmax / MRT / Vd / clearance / half-life / AUC(0-t) / Tmax / bioavailability: in vivo
Procedure: Mouse pharmacokinetic studies were conducted by using female CD-1 mice for compounds 1, 11, and 12, while BALB/c mice were used for compound 13. Mouse body weights were 19 to 28 g, and on the morning of dosing, mice were split randomly into 3 dosing groups to receive the test article by either intravenous (i.v.) tail vein injection or oral (p.o.) gavage. After dosing, blood samples were collected via cardiac puncture at specific time points (n = 3 mice/time point) through 24 h (K2EDTA as an anticoagulant) and processed for plasma. Antibiotic concentrations in the plasma samples were analyzed by liquid chromatography-tandem mass spectrometry (LC-MS/MS). The LC-MS/MS analysis was conducted by using analyte/internal standard peak area methods. The internal standard was AN3365 ([21]), and the instrument used was an API4000 QTRAP instrument (AB Sciex). The limit of quantitation (LOQ) was 1 or 2 ng/ml. Pharmacokinetic analyses of the mean plasma concentration-time profiles were performed by using WinNonlin Pro version 5.2. A compartmental model was used for the data for i.v. dosing, and a noncompartmental model was used for the data for p.o. dosing. […] Compounds 1 and 13 were formulated in saline (0.9% [wt/vol] NaCl) at 7.5 mg/ml, and the pH was adjusted to >5 by the addition of NaOH. Compound 11 was formulated to 6.5 mg/ml in water-dimethylacetamide-ethanol (EtOH) (76:19:5), and the pH was adjusted to >5 by the addition of NaOH. Compound 12 was formulated to 7.5 mg/ml in PEG 300-propylene glycol (PG)-water (55:25:20), and the pH was adjusted to >5 by the addition of NaOH.

[9] = in vitro; type: in vitro ADME; conditions: mouse plasma, 1 and 10 µg/ml, ultrafiltration; read-out: Mouse PPB (converted)
Procedure: Compounds were added to 1.5-ml aliquots of mouse plasma at concentrations of 1 and 10 µg/ml and then incubated in a shaking water bath at 37°C for 15 min. Both samples were treated similarly, and a 0.5-ml aliquot was removed from each tube and added to the filter reservoir of Microcon centrifugal filter devices (Ultracel YM-30 with a molecular mass cutoff of 30 kDa). The devices were centrifuged at 1,000 × g for 10 min, and 100 μl of the filtrate was transferred to a 96-well plate and diluted 5-fold. Ten-microliter volumes of the samples were injected and analyzed with the LC-MS/MS system. All samples were analyzed in duplicate. Quantitation was based on the peak area ratio of the analyte over the internal standard, and all integrations were performed with peak areas by using Analyst version 1.4.1 (Applied Biosystems, Foster City, CA, USA). Plasma protein binding was calculated based on the following equation: Plasma Protein Binding (%)=(PeakAreaPlasma UltrafilrateSpiked−PeakAreaPlasmaFiltrate)/PeakAreaPlasma UltrafiltrateSpiked×100

[10] = mouse, po, 30 mg/kg, Terminal t1/2, mouse
[11] = female, CD-1, mouse, iv, 15 mg/kg

Chain of M. tuberculosis LeuRS (P9WFV1 whole entry, the tested form may be a part): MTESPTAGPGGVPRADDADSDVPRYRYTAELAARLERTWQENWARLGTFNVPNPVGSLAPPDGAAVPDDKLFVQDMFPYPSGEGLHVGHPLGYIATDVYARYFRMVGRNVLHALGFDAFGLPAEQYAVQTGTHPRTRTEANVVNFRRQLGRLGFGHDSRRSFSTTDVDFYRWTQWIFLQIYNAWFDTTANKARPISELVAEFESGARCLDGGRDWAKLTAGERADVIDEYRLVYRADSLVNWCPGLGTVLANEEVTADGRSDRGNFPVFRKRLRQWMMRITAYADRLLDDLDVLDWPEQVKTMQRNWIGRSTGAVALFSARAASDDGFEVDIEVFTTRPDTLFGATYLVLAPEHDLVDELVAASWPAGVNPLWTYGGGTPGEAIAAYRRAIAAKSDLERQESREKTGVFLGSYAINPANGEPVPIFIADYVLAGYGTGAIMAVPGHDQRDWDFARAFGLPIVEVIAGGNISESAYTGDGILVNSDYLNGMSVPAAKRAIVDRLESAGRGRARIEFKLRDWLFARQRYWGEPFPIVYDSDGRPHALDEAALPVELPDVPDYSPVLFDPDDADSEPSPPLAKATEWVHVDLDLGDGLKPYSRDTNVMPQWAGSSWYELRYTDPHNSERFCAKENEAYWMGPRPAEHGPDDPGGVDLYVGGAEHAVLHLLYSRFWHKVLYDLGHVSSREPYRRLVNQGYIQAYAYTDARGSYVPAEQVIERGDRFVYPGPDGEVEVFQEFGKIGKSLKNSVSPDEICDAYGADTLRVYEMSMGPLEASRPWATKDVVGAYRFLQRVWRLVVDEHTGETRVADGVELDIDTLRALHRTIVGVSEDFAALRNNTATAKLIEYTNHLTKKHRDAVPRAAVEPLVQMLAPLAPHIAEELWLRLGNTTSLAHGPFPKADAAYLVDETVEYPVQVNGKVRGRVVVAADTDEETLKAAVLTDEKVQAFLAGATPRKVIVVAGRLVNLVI
Chain of M. tuberculosis LeuRS editing domain (P9WFV1 309-513): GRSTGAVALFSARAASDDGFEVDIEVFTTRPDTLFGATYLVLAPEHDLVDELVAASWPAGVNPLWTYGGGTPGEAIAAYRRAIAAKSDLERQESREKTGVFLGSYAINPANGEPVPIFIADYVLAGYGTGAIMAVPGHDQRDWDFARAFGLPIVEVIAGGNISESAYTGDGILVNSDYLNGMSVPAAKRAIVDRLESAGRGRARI

Compound: C[C@H]1c2cccc(O)c2C(=O)C2=C(O)[C@]3(O)C(=O)C(C(N)=O)=C(O)[C@@H](N(C)C)[C@@H]3[C@@H](O)[C@@H]21 [Doxycycline, doxycycline]
- EC50 [1]: 109 ± 29 µM
- EC50 [2]: 23.7 ± 6.4 µM
- EC50 [3]: 118 ± 35.5 µM

Compound: CCOc1c(F)ccc2c1B(O)OC2CN (stereo not drawn) [Compound 7]
- EC50 [4]: > 50 µM
- MIC M.tb H37Rv [5]: ≥ 1.1 µg/mL
- MIC [5]: > 1.1 µg/mL
- IC50 ([6]; read-out: IC50 M.tb LeuRS): 560 nM

Compound: OB1OCc2ccccc21 [AN2679]
- MIC [5]: 7.5 µg/mL (≈ 56 µM)
- IC50 ([6]; read-out: IC50 M.tb LeuRS): 21300 nM

Compound: CC[C@H]1OC(=O)[C@H](C)[C@@H](O[C@H]2C[C@@](C)(OC)[C@@H](O)[C@H](C)O2)[C@H](C)[C@@H](O[C@@H]2O[C@H](C)C[C@H](N(C)C)[C@H]2O)[C@](C)(O)C[C@@H](C)C(=O)[C@H](C)[C@@H](O)[C@]1(C)O [Erythromycin, erythromycin]
- EC50 [1]: > 150 µM
- EC50 [2]: > 150 µM
- EC50 [3]: > 150 µM

Compound: CCOc1ccc(F)c2c1B(O)OC2CN (stereo not drawn) [Compound 6]
- EC50 [4]: > 50 µM
- improvement of MIC values over compound 1 [5]: more than 5 fold
- MIC [5]: 0.05 µg/mL (≈ 0.222 µM)
- IC50 ([6]; read-out: IC50 M.tb LeuRS): 110 nM

Compound: CCOc1cccc2c1B(O)O[C@@H]2CN [Compound 2]
- EC50 [4]: > 50 µM
- No. of sites ([7]; ITC, 25°C, with AMP): 1.05
- ΔGap ([7]; ITC, 25°C, with AMP): -7.4 kcal/mol
- ΔHap ([7]; ITC, 25°C, with AMP): -1.1 kcal/mol
- −TΔSap ([7]; ITC, 25°C, with AMP): -6.3 kcal/mol
- Kd ([7]; ITC, 25°C, with AMP, read-out: Kd): 3700 nM
- α-t1/2 % AUC ([8]; mouse, 30 mg/kg): 5 % AUC
- β-t1/2 % AUC ([8]; mouse, 30 mg/kg): 95 % AUC
- AUC(0-inf) ([8]; mouse, iv, 30 mg/kg): 13800 ng·h/mL
- Cmax ([8]; mouse, iv, 30 mg/kg): 8900 ng/mL
- MRT ([8]; mouse, iv, 30 mg/kg): 2.1 h
- Vd ([8]; mouse, iv, 30 mg/kg): 2.12 L/kg
- clearance ([8]; mouse, iv, 30 mg/kg): 36.3 mL/min/kg
- half-life ([8]; mouse, iv, 30 mg/kg, α-t1/2, mouse): 3.6 min
- half-life ([8]; mouse, iv, 30 mg/kg, β-t1/2, mouse): 90 min
- AUC(0-t) ([8]; mouse, po, 30 mg/kg): 13200 ng·h/mL
- Cmax ([8]; mouse, po, 30 mg/kg): 3400 ng/mL
- Tmax ([8]; mouse, po, 30 mg/kg): 30 min
- bioavailability ([8]; mouse, po, 30 mg/kg): 96%
- half-life [8, 10]: 108 min
- MIC [5]: 0.13 µg/mL (≈ 0.628 µM)
- IC50 ([6]; read-out: IC50 M.tb LeuRS): 130 nM
- fraction unbound [9]: 0.94

Compound: CCOc1cc(Cl)cc2c1B(O)OC2CN (stereo not drawn) [Compound 5]
- EC50 [4]: 43 µM
- MIC M.tb H37Rv [5]: ≥ 1.1 µg/mL
- MIC [5]: 1.2 µg/mL (≈ 4.97 µM)
- IC50 ([6]; read-out: IC50 M.tb LeuRS): 380 nM

Compound: OCCCOc1cccc2c1B(O)OC2 [AN3016]
- MIC M.tb H37Rv [5]: 1.0 µg/mL (≈ 4.81 µM)
- MIC [5]: 1 µg/mL (≈ 4.81 µM)
- IC50 ([6]; read-out: IC50 M.tb LeuRS): 3500 nM

Compound: CCOc1ccc(Cl)c2c1B(O)OC2CN (stereo not drawn) [Compound 4]
- EC50 [4]: > 50 µM
- improvement of MIC values over compound 1 [5]: more than 5 fold
- MIC [5]: 0.04 µg/mL (≈ 0.166 µM)
- IC50 [6]: 90 nM

Compound: O=C(N[C@H](CO)[C@H](O)c1ccc([N+](=O)[O-])cc1)C(Cl)Cl [Chloramphenicol, chloramphenicol]
- EC50 [1]: > 150 µM
- EC50 [2]: 31.4 ± 23.2 µM
- EC50 [3]: 110 ± 14.1 µM

Compound: CCOc1ccc(-c2ccccc2)c2c1B(O)OC2CN.Cl (stereo not drawn) [Compound 10, 3-(Aminomethyl)-7-ethoxy-4-phenylbenzo[c][1,2]oxaborol-1(3H)-ol hydrochloride]
- EC50 [4]: > 50 µM
- MIC [5]: 17 µg/mL
- IC50 ([6]; read-out: IC50 M.tb LeuRS): 28000 nM

Compound: CCOc1ccc(CC)c2c1B(O)OC2CN (stereo not drawn) [Compound 9]
- EC50 [4]: > 50 µM
- MIC [5]: 0.29 µg/mL (≈ 1.23 µM)
- IC50 ([6]; read-out: IC50 M.tb LeuRS): 310 nM

Compound: CCOc1ccc(Br)c2c1B(O)OC2CN (stereo not drawn) [Compound 11]
- EC50 [4]: > 50 µM
- Kd [7]: 40 nM
- No. of sites [7]: 1.02
- ΔGap [7]: -10.0 kcal/mol
- ΔHap [7]: -5.5 kcal/mol
- −TΔSap [7]: -4.6 kcal/mol
- AUC(0-inf) [8, 11]: 45800 ng·h/mL
- Cmax [8, 11]: 18000 ng/mL
- MRT [8, 11]: 3 h
- Vd [8, 11]: 0.968 L/kg
- clearance [8, 11]: 5.47 mL/min/kg
- half-life ([8]; female, CD-1, mouse, iv, 15 mg/kg, α-t1/2, mouse): 5.4 min
- half-life ([8]; female, CD-1, mouse, iv, 15 mg/kg, β-t1/2, mouse): 125 min
- α-t1/2 % AUC ([8]; mouse, 15 mg/kg): 2 % AUC
- β-t1/2 % AUC ([8]; mouse, 15 mg/kg): 98 % AUC
- AUC(0-t) ([8]; mouse, po, 30 mg/kg): 35900 ng·h/mL
- Cmax ([8]; mouse, po, 30 mg/kg): 7200 ng/mL
- Tmax ([8]; mouse, po, 30 mg/kg): 60 min
- bioavailability ([8]; mouse, po, 30 mg/kg): 39%
- half-life [8, 10]: 162 min
- improvement of MIC values over compound 1 [5]: more than 5 fold
- MIC [5]: 0.05 µg/mL (≈ 0.175 µM)
- IC50 [6]: 110 nM
- fraction unbound [9]: 0.5

Compound: CCOc1cccc2c1B(O)O[C@H]2CN [Compound 3]
- EC50 [4]: > 50 µM
- IC50 ([6]; read-out: IC50 M.tb LeuRS): 21000 nM

Compound: CCOc1ccc(C)c2c1B(O)OC2CN (stereo not drawn) [Compound 8]
- EC50 [4]: > 50 µM
- MIC [5]: 0.04 µg/mL (≈ 0.181 µM)
- IC50 ([6]; read-out: IC50 M.tb LeuRS): 200 nM

Compound: NCC1OB(O)c2ccccc21 (stereo not drawn) [AN3017]
- MIC [5]: 1.8 µg/mL (≈ 11 µM)
- IC50 ([6]; read-out: IC50 M.tb LeuRS): 640 nM

— article PMC5038265 (Antimicrobial Agents and Chemotherapy, 2016)
